Reference: ChEMBL document CHEMBL1914417 (Bioorg Med Chem Lett, 2011)
pEC50: −log10 of the molar value.

How the values were obtained:
[1] = biological target: Muscarinic acetylcholine receptor M3 (Rattus norvegicus, UniProt P08483); assay: Agonist activity at rat muscarinic M3 receptor expressed in CHO cells; format: functional, cell-based
[2] = biological target: T1, Muscarinic acetylcholine receptor M4 (Rattus norvegicus, UniProt P08485); assay: Agonist activity at rat recombinant muscarinic M4 receptor by HTS cell based assay; format: functional
T1 sequence (P08485 whole entry): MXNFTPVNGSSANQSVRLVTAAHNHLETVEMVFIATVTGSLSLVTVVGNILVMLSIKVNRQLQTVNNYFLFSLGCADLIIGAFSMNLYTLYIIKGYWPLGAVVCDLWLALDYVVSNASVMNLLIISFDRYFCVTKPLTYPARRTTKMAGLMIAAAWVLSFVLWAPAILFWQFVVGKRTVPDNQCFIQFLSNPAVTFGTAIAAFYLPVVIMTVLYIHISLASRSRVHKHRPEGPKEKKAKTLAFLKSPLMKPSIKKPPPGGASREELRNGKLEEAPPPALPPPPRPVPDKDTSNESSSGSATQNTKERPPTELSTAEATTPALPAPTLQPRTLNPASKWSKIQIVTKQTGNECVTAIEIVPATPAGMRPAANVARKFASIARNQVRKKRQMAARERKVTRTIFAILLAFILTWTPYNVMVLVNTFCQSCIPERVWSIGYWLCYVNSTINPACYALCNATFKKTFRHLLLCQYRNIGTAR

[3] = biological target: T2, Muscarinic acetylcholine receptor M1 (Rattus norvegicus, UniProt P08482); assay: Agonist activity at rat recombinant muscarinic M1 receptor by HTS cell based assay; format: functional
T2 sequence (P08482 whole entry): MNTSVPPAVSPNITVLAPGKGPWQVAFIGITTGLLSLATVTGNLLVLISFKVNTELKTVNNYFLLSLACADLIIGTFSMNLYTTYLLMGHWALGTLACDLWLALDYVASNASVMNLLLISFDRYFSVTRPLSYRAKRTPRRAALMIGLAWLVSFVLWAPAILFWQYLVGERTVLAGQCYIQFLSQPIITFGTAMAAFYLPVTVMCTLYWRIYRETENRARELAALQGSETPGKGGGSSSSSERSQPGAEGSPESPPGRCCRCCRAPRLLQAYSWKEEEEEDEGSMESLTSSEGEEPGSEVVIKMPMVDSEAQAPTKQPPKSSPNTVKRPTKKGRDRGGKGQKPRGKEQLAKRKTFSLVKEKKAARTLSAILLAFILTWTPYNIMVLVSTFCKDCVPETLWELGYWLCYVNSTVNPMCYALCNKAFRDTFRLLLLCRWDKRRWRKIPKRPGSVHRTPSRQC

[4] = biological target: T3, Muscarinic acetylcholine receptor M2 (Homo sapiens, UniProt P08172); assay: Agonist activity at human recombinant muscarinic M2 receptor by HTS cell based assay; format: functional
T3 sequence (P08172 whole entry): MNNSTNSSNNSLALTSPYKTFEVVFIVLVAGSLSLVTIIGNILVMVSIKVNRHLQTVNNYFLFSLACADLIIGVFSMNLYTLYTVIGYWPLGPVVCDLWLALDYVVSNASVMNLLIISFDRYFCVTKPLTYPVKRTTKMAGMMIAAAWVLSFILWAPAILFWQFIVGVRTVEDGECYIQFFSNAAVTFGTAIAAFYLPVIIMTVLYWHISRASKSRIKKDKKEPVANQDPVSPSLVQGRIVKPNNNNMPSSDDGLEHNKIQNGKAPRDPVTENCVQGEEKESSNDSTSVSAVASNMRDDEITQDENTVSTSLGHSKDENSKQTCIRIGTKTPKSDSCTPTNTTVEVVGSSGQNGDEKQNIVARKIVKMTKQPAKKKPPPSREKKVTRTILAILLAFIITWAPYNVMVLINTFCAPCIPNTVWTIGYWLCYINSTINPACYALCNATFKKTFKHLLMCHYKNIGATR

[5] = biological target: T4, Muscarinic acetylcholine receptor M1 (Rattus norvegicus) (UniProt P08482); assay: Agonist activity at rat muscarinic M1 receptor expressed in CHO cells relative to acetylcholine; format: functional, cell-based
T4 sequence (whole entry): T2 sequence (P08482 whole entry)

[6] = biological target: T5, Muscarinic acetylcholine receptor M2 (Rattus norvegicus, UniProt P10980); assay: Agonist activity at rat recombinant muscarinic M2 receptor by HTS cell based assay; format: functional
T5 sequence (P10980 whole entry): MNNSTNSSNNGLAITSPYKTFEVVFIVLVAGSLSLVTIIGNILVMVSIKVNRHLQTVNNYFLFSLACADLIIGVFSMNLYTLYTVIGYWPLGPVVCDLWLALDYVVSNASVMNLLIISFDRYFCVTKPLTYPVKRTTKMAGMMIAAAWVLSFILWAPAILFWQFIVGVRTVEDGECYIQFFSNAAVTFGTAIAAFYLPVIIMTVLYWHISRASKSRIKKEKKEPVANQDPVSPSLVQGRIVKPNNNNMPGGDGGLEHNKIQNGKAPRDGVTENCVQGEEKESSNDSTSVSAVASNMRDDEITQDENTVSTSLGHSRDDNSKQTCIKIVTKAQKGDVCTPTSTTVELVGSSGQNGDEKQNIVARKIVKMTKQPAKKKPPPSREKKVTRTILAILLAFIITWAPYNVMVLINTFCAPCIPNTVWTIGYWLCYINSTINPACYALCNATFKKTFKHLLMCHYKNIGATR

[7] = biological target: T6, Muscarinic acetylcholine receptor M5 (Rattus norvegicus, UniProt P08911); assay: Agonist activity at rat muscarinic M5 receptor expressed in CHO cells; format: functional, cell-based
T6 sequence (P08911 whole entry): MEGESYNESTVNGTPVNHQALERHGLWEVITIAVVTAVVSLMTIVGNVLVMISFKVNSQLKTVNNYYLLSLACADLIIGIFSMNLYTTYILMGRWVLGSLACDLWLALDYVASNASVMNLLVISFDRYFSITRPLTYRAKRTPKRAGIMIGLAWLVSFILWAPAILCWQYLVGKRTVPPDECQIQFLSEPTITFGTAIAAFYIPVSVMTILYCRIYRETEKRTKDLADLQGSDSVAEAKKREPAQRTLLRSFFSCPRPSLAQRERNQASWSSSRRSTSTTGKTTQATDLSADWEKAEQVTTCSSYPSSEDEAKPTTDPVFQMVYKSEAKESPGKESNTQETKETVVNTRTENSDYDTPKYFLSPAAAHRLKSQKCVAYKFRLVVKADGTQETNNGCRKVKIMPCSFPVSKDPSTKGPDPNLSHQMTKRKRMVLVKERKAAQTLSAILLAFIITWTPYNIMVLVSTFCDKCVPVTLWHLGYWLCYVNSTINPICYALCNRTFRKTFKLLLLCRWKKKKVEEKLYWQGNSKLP

Chain of Muscarinic acetylcholine receptor M3 (P08483 whole entry): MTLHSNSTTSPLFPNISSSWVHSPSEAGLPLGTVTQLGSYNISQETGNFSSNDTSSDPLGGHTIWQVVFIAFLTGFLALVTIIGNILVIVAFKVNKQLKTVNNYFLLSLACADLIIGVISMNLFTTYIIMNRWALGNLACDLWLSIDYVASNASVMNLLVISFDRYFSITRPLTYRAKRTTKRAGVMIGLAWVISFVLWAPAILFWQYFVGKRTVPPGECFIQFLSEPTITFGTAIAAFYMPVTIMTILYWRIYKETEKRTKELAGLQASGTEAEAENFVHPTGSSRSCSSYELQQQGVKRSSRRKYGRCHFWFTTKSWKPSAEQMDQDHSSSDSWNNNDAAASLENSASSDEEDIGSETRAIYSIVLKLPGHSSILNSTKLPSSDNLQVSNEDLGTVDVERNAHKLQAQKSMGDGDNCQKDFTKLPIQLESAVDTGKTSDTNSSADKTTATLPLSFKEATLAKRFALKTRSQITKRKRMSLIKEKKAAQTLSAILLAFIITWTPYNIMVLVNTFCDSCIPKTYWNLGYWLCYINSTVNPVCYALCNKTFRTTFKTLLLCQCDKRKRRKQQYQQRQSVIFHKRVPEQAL

Row | SMILES | pEC50 [1] | pEC50 [2] | pEC50 [3] | pEC50 [4] | Emax [5] | pEC50 [6] | pEC50 [7]
1 | CCOC(=O)N1CCC(N2CCC[C@@H](NC(=O)c3ccccc3C)C2)CC1 | < 4.52 | < 4.52 | 5.89 | < 4.52 | 96% | < 4.52 | < 4.52
2 | CCOC(=O)N1CCC(NCCNC(=O)c2ccccc2C)CC1 | < 4.52 | < 4.52 | 5.64 | < 4.52 | 81% | < 4.52 | < 4.52
